# Tested on: hypertensive subjects
# Test: Adverse events (TEAEs, SAEs, AESI, study drug discontinuation, dose modification);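 note: counts of spontaneously reported adverse events in the Safety Analysis Set, subjects grouped by treatment actually received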
# Format: in vivo, human
# Conditions: Part 1
# Source text: In analyses performed on the Safety Analysis Set, subjects will be analyzed according to their actual treatment received.
smiles,measurement,setting,value
CC(=O)N[C@H]1CC[C@H](NC(=O)CN2CCN(c3nncc(-c4ccc(C)cc4)n3)CC2)CC1 [Compound A HBr],"On-treatment TEAE: Infections and infestations, Moderate",12.5 mg QD (N = 23),0 n (%)
same,On-treatment TEAE: Investigations,12.5 mg QD (N = 23),3 (13.0) n (%)
same,"On-treatment TEAE: Investigations, Mild",12.5 mg QD (N = 23),3 (13.0) n (%)
same,"On-treatment TEAE: Investigations, Moderate",12.5 mg QD (N = 23),0 n (%)
same,On-treatment TEAE: Metabolism and nutrition disorders,12.5 mg QD (N = 23),6 (26.1) n (%)
same,"On-treatment TEAE: Metabolism and nutrition disorders, Mild",12.5 mg QD (N = 23),4 (17.4) n (%)
same,"On-treatment TEAE: Metabolism and nutrition disorders, Moderate",12.5 mg QD (N = 23),1 (4.3) n (%)
same,On-treatment TEAE: Nervous system disorders,12.5 mg QD (N = 23),2 (8.7) n (%)
same,"On-treatment TEAE: Nervous system disorders, Mild",12.5 mg QD (N = 23),2 (8.7) n (%)
same,On-treatment TEAE: Orthostatic hypotension,12.5 mg QD (N = 23),2 (8.7) n (%)
same,"On-treatment TEAE: Orthostatic hypotension, Mild",12.5 mg QD (N = 23),2 (8.7) n (%)
same,On-treatment TEAE: Psychiatric disorders,12.5 mg QD (N = 23),0 n (%)
same,"On-treatment TEAE: Psychiatric disorders, Moderate",12.5 mg QD (N = 23),0 n (%)
same,On-treatment TEAE: Urinary tract infection,12.5 mg QD (N = 23),1 (4.3) n (%)
same,"On-treatment TEAE: Urinary tract infection, Mild",12.5 mg QD (N = 23),1 (4.3) n (%)
same,On-treatment TEAE: Vascular disorders,12.5 mg QD (N = 23),3 (13.0) n (%)
same,"On-treatment TEAE: Vascular disorders, Mild",12.5 mg QD (N = 23),2 (8.7) n (%)
same,"On-treatment TEAE: Vascular disorders, Moderate",12.5 mg QD (N = 23),1 (4.3) n (%)
same,"On-treatment TEAE: any, Mild",12.5 mg QD (N = 23),12 (52.2) n (%)
same,"On-treatment TEAE: any, Moderate",12.5 mg QD (N = 23),3 (13.0) n (%)
same,"On-treatment TEAE: any, Severe",12.5 mg QD (N = 23),1 (4.3) n (%)
same,Subjects with any On-treatment TEAEs leading to withdrawal from study drug,12.5 mg QD (N = 23),4 (17.4) n (%)
same,TEAE leading to permanent discontinuation from study drug: Activated partial thromboplastin time prolonged,12.5 mg QD (N = 23),0 n (%)
same,TEAE leading to permanent discontinuation from study drug: Cardiac disorders,12.5 mg QD (N = 23),1 (4.3) n (%)
same,TEAE leading to permanent discontinuation from study drug: Coronary artery disease,12.5 mg QD (N = 23),1 (4.3) n (%)
same,TEAE leading to permanent discontinuation from study drug: Dizziness,12.5 mg QD (N = 23),1 (4.3) n (%)
same,TEAE leading to permanent discontinuation from study drug: Hyperkalaemia,12.5 mg QD (N = 23),2 (8.7) n (%)
same,TEAE leading to permanent discontinuation from study drug: Hypertension,12.5 mg QD (N = 23),0 n (%)
same,TEAE leading to permanent discontinuation from study drug: Hypotension,12.5 mg QD (N = 23),0 n (%)
same,TEAE leading to permanent discontinuation from study drug: Investigations,12.5 mg QD (N = 23),0 n (%)
same,TEAE leading to permanent discontinuation from study drug: Metabolism and nutrition disorders,12.5 mg QD (N = 23),2 (8.7) n (%)
same,TEAE leading to permanent discontinuation from study drug: Nervous system disorders,12.5 mg QD (N = 23),1 (4.3) n (%)
same,TEAE leading to permanent discontinuation from study drug: Orthostatic hypotension,12.5 mg QD (N = 23),0 n (%)
same,TEAE leading to permanent discontinuation from study drug: Vascular disorders,12.5 mg QD (N = 23),0 n (%)
same,On-treatment TEAE: Blood and lymphatic system disorders,25 mg BID (N = 30),2 (6.7) n (%)
same,"On-treatment TEAE: Blood and lymphatic system disorders, Mild",25 mg BID (N = 30),2 (6.7) n (%)
same,On-treatment TEAE: Blood creatinine increased,25 mg BID (N = 30),0 n (%)
same,"On-treatment TEAE: Blood creatinine increased, Mild",25 mg BID (N = 30),0 n (%)
same,On-treatment TEAE: Cardiac disorders,25 mg BID (N = 30),0 n (%)
same,On-treatment TEAE: Cortisol decreased,25 mg BID (N = 30),1 (3.3) n (%)
same,"On-treatment TEAE: Cortisol decreased, Mild",25 mg BID (N = 30),1 (3.3) n (%)
same,On-treatment TEAE: Dizziness,25 mg BID (N = 30),0 n (%)
same,On-treatment TEAE: Gastrointestinal disorders,25 mg BID (N = 30),1 (3.3) n (%)
same,"On-treatment TEAE: Gastrointestinal disorders, Mild",25 mg BID (N = 30),1 (3.3) n (%)
same,On-treatment TEAE: General disorders and administration site conditions,25 mg BID (N = 30),0 n (%)
same,"On-treatment TEAE: General disorders and administration site conditions, Mild",25 mg BID (N = 30),0 n (%)
same,On-treatment TEAE: Glomerular filtration rate decreased,25 mg BID (N = 30),0 n (%)
same,"On-treatment TEAE: Glomerular filtration rate decreased, Mild",25 mg BID (N = 30),0 n (%)
same,On-treatment TEAE: Headache,25 mg BID (N = 30),2 (6.7) n (%)
same,"On-treatment TEAE: Headache, Mild",25 mg BID (N = 30),2 (6.7) n (%)
same,On-treatment TEAE: Hyperkalaemia,25 mg BID (N = 30),9 (30.0) n (%)
same,"On-treatment TEAE: Hyperkalaemia, Mild",25 mg BID (N = 30),7 (23.3) n (%)
same,"On-treatment TEAE: Hyperkalaemia, Moderate",25 mg BID (N = 30),2 (6.7) n (%)
same,"On-treatment TEAE: Hyperkalaemia, Severe",25 mg BID (N = 30),0 n (%)
same,On-treatment TEAE: Hypertension,25 mg BID (N = 30),1 (3.3) n (%)
same,"On-treatment TEAE: Hypertension, Moderate",25 mg BID (N = 30),0 n (%)
same,On-treatment TEAE: Infections and infestations,25 mg BID (N = 30),3 (10.0) n (%)
same,"On-treatment TEAE: Infections and infestations, Mild",25 mg BID (N = 30),2 (6.7) n (%)
same,"On-treatment TEAE: Infections and infestations, Moderate",25 mg BID (N = 30),1 (3.3) n (%)
same,On-treatment TEAE: Investigations,25 mg BID (N = 30),3 (10.0) n (%)
same,"On-treatment TEAE: Investigations, Mild",25 mg BID (N = 30),2 (6.7) n (%)
same,"On-treatment TEAE: Investigations, Moderate",25 mg BID (N = 30),1 (3.3) n (%)
same,On-treatment TEAE: Metabolism and nutrition disorders,25 mg BID (N = 30),10 (33.3) n (%)
same,"On-treatment TEAE: Metabolism and nutrition disorders, Mild",25 mg BID (N = 30),8 (26.7) n (%)
same,"On-treatment TEAE: Metabolism and nutrition disorders, Moderate",25 mg BID (N = 30),2 (6.7) n (%)
same,On-treatment TEAE: Nervous system disorders,25 mg BID (N = 30),3 (10.0) n (%)
same,"On-treatment TEAE: Nervous system disorders, Mild",25 mg BID (N = 30),2 (6.7) n (%)
same,On-treatment TEAE: Orthostatic hypotension,25 mg BID (N = 30),0 n (%)
same,"On-treatment TEAE: Orthostatic hypotension, Mild",25 mg BID (N = 30),0 n (%)
same,On-treatment TEAE: Psychiatric disorders,25 mg BID (N = 30),0 n (%)
same,"On-treatment TEAE: Psychiatric disorders, Moderate",25 mg BID (N = 30),0 n (%)
same,On-treatment TEAE: Urinary tract infection,25 mg BID (N = 30),3 (10.0) n (%)
same,"On-treatment TEAE: Urinary tract infection, Mild",25 mg BID (N = 30),2 (6.7) n (%)
same,On-treatment TEAE: Vascular disorders,25 mg BID (N = 30),1 (3.3) n (%)
same,"On-treatment TEAE: Vascular disorders, Mild",25 mg BID (N = 30),1 (3.3) n (%)
same,"On-treatment TEAE: Vascular disorders, Moderate",25 mg BID (N = 30),0 n (%)
same,"On-treatment TEAE: any, Mild",25 mg BID (N = 30),14 (46.7) n (%)
same,"On-treatment TEAE: any, Moderate",25 mg BID (N = 30),4 (13.3) n (%)
same,"On-treatment TEAE: any, Severe",25 mg BID (N = 30),0 n (%)
same,Subjects with any On-treatment TEAEs leading to withdrawal from study drug,25 mg BID (N = 30),1 (3.3) n (%)
same,TEAE leading to permanent discontinuation from study drug: Activated partial thromboplastin time prolonged,25 mg BID (N = 30),0 n (%)
same,TEAE leading to permanent discontinuation from study drug: Cardiac disorders,25 mg BID (N = 30),0 n (%)
same,TEAE leading to permanent discontinuation from study drug: Coronary artery disease,25 mg BID (N = 30),0 n (%)
same,TEAE leading to permanent discontinuation from study drug: Dizziness,25 mg BID (N = 30),0 n (%)
same,TEAE leading to permanent discontinuation from study drug: Hyperkalaemia,25 mg BID (N = 30),1 (3.3) n (%)
same,TEAE leading to permanent discontinuation from study drug: Hypertension,25 mg BID (N = 30),1 (3.3) n (%)
same,TEAE leading to permanent discontinuation from study drug: Hypotension,25 mg BID (N = 30),0 n (%)
same,TEAE leading to permanent discontinuation from study drug: Investigations,25 mg BID (N = 30),0 n (%)
same,TEAE leading to permanent discontinuation from study drug: Metabolism and nutrition disorders,25 mg BID (N = 30),1 (3.3) n (%)
same,TEAE leading to permanent discontinuation from study drug: Nervous system disorders,25 mg BID (N = 30),0 n (%)
same,TEAE leading to permanent discontinuation from study drug: Orthostatic hypotension,25 mg BID (N = 30),0 n (%)
same,TEAE leading to permanent discontinuation from study drug: Vascular disorders,25 mg BID (N = 30),1 (3.3) n (%)
same,On-treatment TEAE: Blood and lymphatic system disorders,50 mg QD (N = 28),0 n (%)
same,"On-treatment TEAE: Blood and lymphatic system disorders, Mild",50 mg QD (N = 28),0 n (%)
same,On-treatment TEAE: Blood creatinine increased,50 mg QD (N = 28),0 n (%)
same,"On-treatment TEAE: Blood creatinine increased, Mild",50 mg QD (N = 28),0 n (%)
same,On-treatment TEAE: Cardiac disorders,50 mg QD (N = 28),1 (3.6) n (%)
same,On-treatment TEAE: Cortisol decreased,50 mg QD (N = 28),0 n (%)
same,"On-treatment TEAE: Cortisol decreased, Mild",50 mg QD (N = 28),0 n (%)
same,On-treatment TEAE: Dizziness,50 mg QD (N = 28),2 (7.1) n (%)
same,On-treatment TEAE: Gastrointestinal disorders,50 mg QD (N = 28),1 (3.6) n (%)
same,"On-treatment TEAE: Gastrointestinal disorders, Mild",50 mg QD (N = 28),1 (3.6) n (%)

# — patent US20260053811A1, “METHODS OF TREATING HYPERTENSION IN OBESE SUBJECTS” (Mineralys Therapeutics, Inc., priority 2022, published 2026)
